# Measured values taken from US10294202B2, “Pyrrolidinones as herbicides” (FMC Corporation, priority 2013, dated 2019).
# Experiments:
# kochia = experiment: Test A pre-/postemergence herbicide test; assay type: in vivo, Kochia scoparia
# How it was run: (§1)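 Visual injury ratings, 0 = no effect, 100 = complete control, taken ~10 days after treatment against untreated greenhouse controls. Preemergence: directed soil spray onto seeded loam/sand pots. Postemergence: spray onto plants at one- to two-leaf stage, 2–10 cm tall.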
# ragweed = experiment: Test A pre-/postemergence herbicide test; assay type: in vivo, Ambrosia elatior
# How it was run: as §1
# giant foxtail = experiment: Test A pre-/postemergence herbicide test; assay type: in vivo, Setaria faberii
# How it was run: as §1
# galium = experiment: Test A postemergence herbicide test; assay type: in vivo, Galium aparine
# How it was run: (§2)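 Potted in loam soil/sand blend; postemergence application at 1–2 leaf stage (2–10 cm). Greenhouse ~10 d. Visual injury vs untreated, 0–100 scale; 100 = complete control.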
# rice = experiment: Test B flooded paddy test; assay type: in vivo, Oryza sativa; details: 500 g ai/ha, Flood; scale of 0 to 100 where 0 is no effect and 100 is complete control
# How it was run: (§3)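 In-water application to pots flooded 3 cm deep, plants at 2-leaf stage. Held in greenhouse 13–15 days at constant flood depth. Scored 0–100 by eye against controls.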
# barnyardgrass [1] = experiment: Test A pre-/postemergence herbicide test; assay type: in vivo, Echinochloa crus-galli
# How it was run: as §1
# ducksalad = experiment: Test B flooded paddy test; assay type: in vivo, Heteranthera limosa; details: 500 g ai/ha, Flood; scale of 0 to 100 where 0 is no effect and 100 is complete control
# How it was run: as §3
# corn = experiment: Test A pre-/postemergence herbicide test; assay type: in vivo, Zea mays; details: Postemergence
# How it was run: as §1
# ryegrass, Italian = experiment: Test A pre-/postemergence herbicide test; assay type: in vivo, Lolium multiflorum
# How it was run: as §1
# sedge, umbrella = experiment: Test B flooded paddy test; assay type: in vivo, Cyperus difformis; details: 500 g ai/ha, Flood; scale of 0 to 100 where 0 is no effect and 100 is complete control
# How it was run: as §3
# barnyardgrass [2] = experiment: Test B flooded paddy test; assay type: in vivo, Echinochloa crus-galli; details: 500 g ai/ha, Flood; scale of 0 to 100 where 0 is no effect and 100 is complete control
# How it was run: as §3
# pigweed = experiment: Test A pre-/postemergence herbicide test; assay type: in vivo, Amaranthus retroflexus
# How it was run: as §1
# wheat = experiment: Test A pre-/postemergence herbicide test; assay type: in vivo, Triticum aestivum; details: Postemergence
# How it was run: as §1
# blackgrass = experiment: Test A postemergence herbicide test; assay type: in vivo, Alopecurus myosuroides
# How it was run: as §2
# [3] = Postemergence, 125 g ai/ha, visual rating on 0 to 100 scale (0 no effect, 100 complete control), approx. 10 days
# [4] = Postemergence, 500 g ai/ha, 0 to 100 scale (0 no effect, 100 complete control)
# [5] = Preemergence, 125 g ai/ha, 0 to 100 scale where 0 is no effect and 100 is complete control
# [6] = preemergence, 500 g ai/ha, 0 to 100 scale, 0 is no effect and 100 is complete control
# [7] = 125 g ai/ha, visual rating on 0 to 100 scale (0 no effect, 100 complete control), approx. 10 days
# [8] = 500 g ai/ha, 0 to 100 scale (0 no effect, 100 complete control)
# [9] = Preemergence, 500 g ai/ha, visual rating on 0 to 100 scale (0 no effect, 100 complete control)
# [10] = 125 g ai/ha, visual rating, 0 to 100 scale, 0 no effect, 100 complete control, approximately 10 days, preemergence
# [11] = Postemergence, 125 g ai/ha, 0 to 100 scale, 0 is no effect, 100 is complete control
# [12] = 125 g ai/ha, 0 to 100 scale, 0 is no effect, 100 is complete control
smiles,measurement,setting,value
CSc1cccc(C2CNC(=O)C2C(=O)Nc2ccccc2Cl)c1 (stereo not drawn) [Compound 291],"Plant response rating, Kochia",kochia; [3],0
same,"Plant response rating, Kochia",kochia; [4],0
same,"Plant response rating, Kochia",kochia; [5],20
same,"Plant response rating, Kochia",kochia; [6],20
same,"Plant response rating, Ragweed",ragweed; [3],0
same,"Plant response rating, Ragweed",ragweed; [4],0
same,"Plant response rating, Ragweed",ragweed; [5],0
same,"Plant response rating, Ragweed",ragweed; [6],0
same,"Plant response rating, Foxtail, Giant",giant foxtail; [3],20
same,"Plant response rating, Foxtail, Giant",giant foxtail; [4],50
same,"Plant response rating, Foxtail, Giant",giant foxtail; [5],20
same,"Plant response rating, Foxtail, Giant",giant foxtail; [6],80
same,"Plant response rating, Galium",galium; [7],20
same,"Plant response rating, Galium",galium; [8],0
same,"Plant response rating, Rice",rice,20
same,"Plant response rating, Barnyardgrass",barnyardgrass [1]; [3],40
same,"Plant response rating, Barnyardgrass",barnyardgrass [1]; [4],60
same,"Plant response rating, Barnyardgrass",barnyardgrass [1]; [5],20
same,"Plant response rating, Barnyardgrass",barnyardgrass [1]; [6],60
same,"Plant response rating, Ducksalad",ducksalad,0
same,"Plant response rating, Corn",corn; [7],0
same,"Plant response rating, Corn",corn; [8],0
same,"Plant response rating, Ryegrass, Italian","ryegrass, Italian; [3]",0
same,"Plant response rating, Ryegrass, Italian","ryegrass, Italian; [4]",0
same,"Plant response rating, Ryegrass, Italian","ryegrass, Italian; [5]",0
same,"Ryegrass, Italian plant response rating","ryegrass, Italian; [9]",30
same,"Plant response rating, Sedge, Umbrella","sedge, umbrella",0
same,"Plant response rating, Barnyardgrass",barnyardgrass [2],0
same,"Plant response rating, Pigweed",pigweed; [3],0
same,"Plant response rating, Pigweed",pigweed; [4],0
same,"Plant response rating, Pigweed",pigweed; [5],0
same,"Plant response rating, Pigweed",pigweed; [6],0
same,"Plant response rating, Wheat",wheat; [7],0
same,"Plant response rating, Wheat",wheat; [8],0
same,"Plant response rating, Blackgrass",blackgrass; [7],0
same,"Plant response rating, Blackgrass",blackgrass; [8],0
O=C1NCC(c2cccc(C(F)F)c2)C1C(=O)Nc1cccc(F)c1F (racemic) [Compound 164],"Plant response rating, Kochia",kochia; [10],60
same,"Plant response rating, Kochia",kochia; [11],60
same,"Kochia plant response rating (0 to 100 scale, 0 is no effect, 100 is complete control)","kochia; Postemergence, 500 g ai/ha",70
same,"Plant response rating, Kochia",kochia; [6],80
same,"Plant response rating, Ragweed",ragweed; [10],20
same,"Plant response rating, Ragweed",ragweed; [11],20
same,"Ragweed plant response rating (0 to 100 scale, 0 is no effect, 100 is complete control)","ragweed; Postemergence, 500 g ai/ha",50
same,"Plant response rating, Ragweed",ragweed; [6],60
same,"Plant response rating, Foxtail, Giant",giant foxtail; [10],90
same,"Plant response rating, Foxtail, Giant",giant foxtail; [11],70
same,"Foxtail, Giant plant response rating (0 to 100 scale, 0 is no effect, 100 is complete control)","giant foxtail; Postemergence, 500 g ai/ha",90
same,"Plant response rating, Foxtail, Giant","giant foxtail; preemergence, 500 g ai/ha, 0 to 100 scale",90
same,"Plant response rating, Galium",galium; [12],50
same,"Galium plant response rating (0 to 100 scale, 0 is no effect, 100 is complete control)",galium; 500 g ai/ha,60
same,"Plant response rating, Rice",rice,20
same,"Plant response rating, Barnyardgrass",barnyardgrass [1]; [10],90
same,"Plant response rating, Barnyardgrass",barnyardgrass [1]; [11],90
same,"Barnyardgrass plant response rating (0 to 100 scale, 0 is no effect, 100 is complete control)","barnyardgrass [1]; Postemergence, 500 g ai/ha",90
same,"Plant response rating, Barnyardgrass","barnyardgrass [1]; preemergence, 500 g ai/ha, 0 to 100 scale (0 no effect, 100 complete control)",90
same,"Plant response rating, Ducksalad",ducksalad,100
same,"Plant response rating, Corn",corn; [12],50
same,"Corn plant response rating (0 to 100 scale, 0 is no effect, 100 is complete control)",corn; 500 g ai/ha,80
same,"Plant response rating, Ryegrass, Italian","ryegrass, Italian; [10]",20
same,"Plant response rating, Ryegrass, Italian","ryegrass, Italian; [11]",40
same,"Ryegrass, Italian plant response rating (0 to 100 scale, 0 is no effect, 100 is complete control)","ryegrass, Italian; Postemergence, 500 g ai/ha",50
same,"Plant response rating, Ryegrass, Italian","ryegrass, Italian; [6]",50
same,"Plant response rating, Sedge, Umbrella","sedge, umbrella",0
same,"Plant response rating, Barnyardgrass",barnyardgrass [2],80
same,"Plant response rating, Pigweed",pigweed; [10],50
same,"Plant response rating, Pigweed",pigweed; [11],20
same,"Pigweed plant response rating (0 to 100 scale, 0 is no effect, 100 is complete control)","pigweed; Postemergence, 500 g ai/ha",60
same,"Plant response rating, Pigweed",pigweed; [6],70
same,"Plant response rating, Wheat",wheat; [12],40
same,"Wheat plant response rating (0 to 100 scale, 0 is no effect, 100 is complete control)",wheat; 500 g ai/ha,80
same,"Plant response rating, Blackgrass",blackgrass; [12],50
same,"Blackgrass plant response rating (0 to 100 scale, 0 is no effect, 100 is complete control)",blackgrass; 500 g ai/ha,70
O=C1NCC(c2cccc(C(F)(F)F)c2)C1C(=O)Nc1cc(F)ccc1F (stereo not drawn) [Compound 314],"Plant response rating, Kochia",kochia; [3],0
same,"Plant response rating, Kochia",kochia; [4],0
same,"Plant response rating, Kochia",kochia; [5],0
same,Kochia plant response rating,kochia; [9],0
same,"Plant response rating, Ragweed",ragweed; [3],0
same,"Plant response rating, Ragweed",ragweed; [4],0
same,"Plant response rating, Ragweed",ragweed; [5],0
same,Ragweed plant response rating,ragweed; [9],0
same,"Plant response rating, Foxtail, Giant",giant foxtail; [3],60
same,"Plant response rating, Foxtail, Giant",giant foxtail; [4],80
same,"Plant response rating, Foxtail, Giant",giant foxtail; [5],30
same,"Foxtail, Giant plant response rating",giant foxtail; [9],90
same,"Plant response rating, Galium",galium; [7],0
same,"Plant response rating, Galium",galium; [8],0
same,"Plant response rating, Rice",rice,15
same,"Plant response rating, Barnyardgrass",barnyardgrass [1]; [3],30
same,"Plant response rating, Barnyardgrass",barnyardgrass [1]; [4],80
same,"Plant response rating, Barnyardgrass",barnyardgrass [1]; [5],20
same,Barnyardgrass plant response rating,barnyardgrass [1]; [9],80
same,"Plant response rating, Ducksalad",ducksalad,40
same,"Plant response rating, Corn",corn; [7],0
same,"Plant response rating, Corn",corn; [8],0
same,"Plant response rating, Ryegrass, Italian","ryegrass, Italian; [3]",0
same,"Plant response rating, Ryegrass, Italian","ryegrass, Italian; [4]",0
same,"Plant response rating, Ryegrass, Italian","ryegrass, Italian; [5]",0
same,"Ryegrass, Italian plant response rating","ryegrass, Italian; [9]",0
same,"Plant response rating, Sedge, Umbrella","sedge, umbrella",0
same,"Plant response rating, Barnyardgrass",barnyardgrass [2],25
same,"Plant response rating, Pigweed",pigweed; [3],0
same,"Plant response rating, Pigweed",pigweed; [4],0
same,"Plant response rating, Pigweed",pigweed; [5],0
same,Pigweed plant response rating,pigweed; [9],0
same,"Plant response rating, Wheat",wheat; [7],0
same,"Plant response rating, Wheat",wheat; [8],0
same,"Plant response rating, Blackgrass",blackgrass; [7],0
same,"Plant response rating, Blackgrass",blackgrass; [8],0
O=C1NCC(c2ccc(F)cc2)C1C(=O)Nc1ccccc1F (stereo not drawn) [Compound 239],"Plant response rating, Kochia",kochia; [10],0
same,"Plant response rating, Kochia",kochia; [11],0
same,"Plant response rating, Kochia",kochia; [4],20
same,"Plant response rating, Kochia",kochia; [6],70
same,"Plant response rating, Ragweed",ragweed; [10],0
same,"Plant response rating, Ragweed",ragweed; [11],0
same,"Plant response rating, Ragweed",ragweed; [4],0
same,"Plant response rating, Ragweed",ragweed; [6],90
same,"Plant response rating, Foxtail, Giant",giant foxtail; [10],80
same,"Plant response rating, Foxtail, Giant",giant foxtail; [11],50
same,"Plant response rating, Foxtail, Giant",giant foxtail; [4],90
same,"Plant response rating, Foxtail, Giant",giant foxtail; [6],90
same,"Plant response rating, Galium",galium; [12],0
same,"Plant response rating, Galium",galium; [8],30
same,"Plant response rating, Rice",rice,0
same,"Plant response rating, Barnyardgrass",barnyardgrass [1]; [10],50
same,"Plant response rating, Barnyardgrass",barnyardgrass [1]; [11],50
same,"Plant response rating, Barnyardgrass",barnyardgrass [1]; [4],90
same,"Plant response rating, Barnyardgrass",barnyardgrass [1]; [6],90
same,"Plant response rating, Ducksalad",ducksalad,100
same,"Plant response rating, Corn",corn; [12],0
same,"Plant response rating, Corn",corn; [8],0
same,"Plant response rating, Ryegrass, Italian","ryegrass, Italian; [10]",0
same,"Plant response rating, Ryegrass, Italian","ryegrass, Italian; [11]",0
same,"Plant response rating, Ryegrass, Italian","ryegrass, Italian; [4]",20
same,"Plant response rating, Ryegrass, Italian","ryegrass, Italian; [6]",0
same,"Plant response rating, Sedge, Umbrella","sedge, umbrella",0
same,"Plant response rating, Barnyardgrass",barnyardgrass [2],50
same,"Plant response rating, Pigweed",pigweed; [10],0
same,"Plant response rating, Pigweed",pigweed; [11],0
same,"Plant response rating, Pigweed",pigweed; [4],0
same,"Plant response rating, Pigweed",pigweed; [6],0
same,"Plant response rating, Wheat",wheat; [12],0
same,"Plant response rating, Wheat",wheat; [8],20
same,"Plant response rating, Blackgrass",blackgrass; [12],20
same,"Plant response rating, Blackgrass",blackgrass; [8],20
